Assays:
[1] = test system: patients who developed hyperuricemia while on niacin therapy; assay: Hyperuricemia on niacin therapy controlled with allopurinol (Example 7); settings: daily dosing 25 to 200 mg to control hyperuricemia
Description: Two females and 15 males were given allopurinol to control the hyperuricemia (daily dosing ranged from 25 to 200 mg).

[2] = test system: patients with niacin-induced pruritis; assay: Treatment of niacin-induced pruritis with an H-1 blocking agent (Example 6); assay type: in vivo, human; settings: among the seven successful patients; morning dosing (cetrizine, fexofenadine) or evening dosing (diphenhydramine)
Description: Nine patients with niacin-induced pruritis were treated by recommending an H-1 blocking agent.

[3] = test system: men with low HDL and coronary artery disease; settings: in combination with other lipid medications; HATS trial, N Engl J Med 345:1583-1592; cited from earlier work
[4] = test system: patients with debilitating flushing on sustained-release niacin therapy; assay: Prevention of flushing in patients on sustained-release niacin therapy (Examples 1 and 3); assay type: in vivo, human; settings: thirteen patients initiating sustained-release niacin; Aspirin 81 mg for prevention of flushing

SMILES: Oc1ncnc2[nH]ncc12 [allopurinol]
- continuation of niacin therapy [1]: All were able to continue niacin therapy

SMILES: CC(C)(C(=O)O)c1ccc(C(O)CCCN2CCC(C(O)(c3ccccc3)c3ccccc3)CC2)cc1 (stereo not drawn) [fexofenadine]
- effect on niacin-induced pruritis [2]: resolution of pruritis

SMILES: CN(C)CCOC(c1ccccc1)c1ccccc1 [diphenhydramine]
- effect on niacin-induced pruritis [2]: resolution of pruritis

SMILES: O=C(O)c1cccnc1 [niacin, 3-pyridinecarboxylic acid]
- lowering of the incidence of cardiovascular events (heart attacks, strokes, and sudden death) [3]: 60-90%

SMILES: CC(=O)Oc1ccccc1C(=O)O [Aspirin]
- flushing despite prevention [4]: continued to have debilitating flushing

SMILES: O=C(O)COCCN1CCN(C(c2ccccc2)c2ccc(Cl)cc2)CC1 (stereo not drawn) [cetrizine]
- effect on niacin-induced pruritis [2]: resolution of pruritis
